The values below come from ChEMBL document CHEMBL1133250, “Antitumor promoting activities of 3-O-acyl-(-)epigallocatechins” (2000).

What all share (type): functional
Experiment [1] has as its system Human gammaherpesvirus 4. In words: Tested for % viability of Rajii cells, in an in vitro assay for TPA-induced EBV activation at concentration of 10 (mol ratio / 32 pmol TPA).
The test system of experiment [2] is Human gammaherpesvirus 4. As to the kind of experiment: In vitro assay for EBV activation in Raji cells induced by 12-O-tetradecanoylphorbol-13-acetate (TPA) at the concentration of 1000 (mol ratio / 32 pmol TPA).
In experiment [3] the test system is Human gammaherpesvirus 4. In words: Tested for % viability of Rajii cells, in an in vitro assay for TPA-induced EBV activation at concentration of 500 (mol ratio / 32 pmol TPA).
Experiment [4] has as its system Human gammaherpesvirus 4. As to the kind of experiment: Tested for % viability of Rajii cells, in an in vitro assay for TPA-induced EBV activation at concentration of 1000 (mol ratio / 32 pmol TPA).
For experiment [5], the system named is Human gammaherpesvirus 4. In words: Tested for % viability of Rajii cells, in an in vitro assay for TPA-induced EBV activation at concentration of 100 (mol ratio / 32 pmol TPA).
Experiment [6] deals with Human gammaherpesvirus 4. As to the kind of experiment: In vitro assay for EBV activation in Raji cells induced by 12-O-tetradecanoylphorbol-13-acetate (TPA) at the concentration of 10 (mol ratio / 32 pmol TPA).
Experiment [7] concerns Human gammaherpesvirus 4. In words: In vitro assay for EBV activation in Raji cells induced by 12-O-tetradecanoylphorbol-13-acetate (TPA) at the concentration of 500 (mol ratio / 32 pmol TPA); (%Viability=>80).
In experiment [8] the test system is Human gammaherpesvirus 4. As to the kind of experiment: In vitro assay for EBV activation in Raji cells induced by 12-O-tetradecanoylphorbol-13-acetate (TPA) at the concentration of 100 (mol ratio / 32 pmol TPA).

On to `O=C(O[C@@H]1Cc2c(O)cc(O)cc2O[C@@H]1c1cc(O)c(O)c(O)c1)c1cc(O)c(O)c(O)c1` [EPIGALOCATECHIN GALLATE], for which the Viability in experiment [1] is over 80%; in experiment [3], over 80%; in experiment [4], 60%; in experiment [5] it was over 80%. In addition, the Activation in experiment [2] was 15.5%; in experiment [6], over 95.9%; in experiment [7], over 35%; in experiment [8], over 69%.
Turning to `O=C(CCc1ccccc1)O[C@@H]1Cc2c(O)cc(O)cc2O[C@@H]1c1cc(O)c(O)c(O)c1`, the Viability in experiment [1] is on record as over 80%; in experiment [3], over 80%; in experiment [4] it was 60%; in experiment [5], over 80%. Besides, the Activation in experiment [2] is given as 17.8%; in experiment [6] it was over 96.5%; in experiment [7], over 39%; in experiment [8] it was over 68.4%.
As for `CCCCCCCCCCCCCCCC(=O)O[C@@H]1Cc2c(O)cc(O)cc2O[C@@H]1c1cc(O)c(O)c(O)c1`, the Viability in experiment [1] was over 80%; in experiment [3] it was over 80%; in experiment [4] it was 60%; in experiment [5], over 80%. The Activation in experiment [2] was 22.7%; in experiment [6], over 100%; in experiment [7], over 41.6%; in experiment [8] it was over 74.3%.
Consider `Cc1ccc(CC(=O)O[C@@H]2Cc3c(O)cc(O)cc3O[C@@H]2c2cc(O)c(O)c(O)c2)cc1`, for which the Viability is on record as over 80% in experiment [1], over 80% in experiment [3], 60% in experiment [4] and over 80% in experiment [5]. For the same molecule, the Activation is 14% in experiment [2], over 95.4% in experiment [6], over 35.3% in experiment [7] and over 65.9% in experiment [8].
For the molecule `CCCCCCCCCCCCCCCCCC(=O)O[C@@H]1Cc2c(O)cc(O)cc2O[C@@H]1c1cc(O)c(O)c(O)c1`, the Viability was over 80% in experiment [1], over 80% in experiment [3], 60% in experiment [4] and over 80% in experiment [5]. Moreover, the Activation in experiment [2] is given as 31.5%; in experiment [6], over 100%; in experiment [7] it was over 64%; in experiment [8] it was over 86.9%.
With `CCc1ccc(C(=O)O[C@@H]2Cc3c(O)cc(O)cc3O[C@@H]2c2cc(O)c(O)c(O)c2)cc1`, the Viability in experiment [1] is recorded as over 80%; in experiment [3], over 80%; in experiment [4] it was 60%; in experiment [5] it was over 80%. The Activation in experiment [2] is on record as 13.2%; in experiment [6] it was over 93.4%; in experiment [7], over 35.4%; in experiment [8], over 64.3%.
As to `CCCCCCC(C)C(=O)O[C@@H]1Cc2c(O)cc(O)cc2O[C@@H]1c1cc(O)c(O)c(O)c1` (stereo partly specified), the Viability is recorded as over 80% in experiment [1], over 80% in experiment [3], 60% in experiment [4] and over 80% in experiment [5]. The Activation is reported as 5% in experiment [2], over 87.5% in experiment [6], over 15.3% in experiment [7] and over 54.1% in experiment [8].
Consider `CCCCCC(=O)O[C@@H]1Cc2c(O)cc(O)cc2O[C@@H]1c1cc(O)c(O)c(O)c1`, for which the Viability in experiment [1] was over 80%; in experiment [3] it was over 80%; in experiment [4] it was 60%; in experiment [5], over 80%. For the same molecule, the Activation in experiment [2] is 12%; in experiment [6], over 93.5%; in experiment [7] it was over 30.8%; in experiment [8], over 62.4%.
For `O=C(Cc1ccccc1)O[C@@H]1Cc2c(O)cc(O)cc2O[C@@H]1c1cc(O)c(O)c(O)c1`, the Viability in experiment [1] is over 80%; in experiment [3] it was over 80%; in experiment [4], 60%; in experiment [5] it was over 80%. Further, the Activation in experiment [2] is 15.4%; in experiment [6], over 96.3%; in experiment [7], over 37.9%; in experiment [8], over 67.8%.
For the molecule `CCCC(=O)O[C@@H]1Cc2c(O)cc(O)cc2O[C@@H]1c1cc(O)c(O)c(O)c1`, the Viability in experiment [1] is given as over 80%; in experiment [3] it was over 80%; in experiment [4], 60%; in experiment [5] it was over 80%. The Activation in experiment [2] is 13.3%; in experiment [6] it was over 94.5%; in experiment [7], over 33.8%; in experiment [8], over 65.1%.
For `CCCCCCCCCC(=O)O[C@@H]1Cc2c(O)cc(O)cc2O[C@@H]1c1cc(O)c(O)c(O)c1`, the Viability is on record as over 80% in experiment [1], over 80% in experiment [3], 60% in experiment [4] and over 80% in experiment [5]. The Activation in experiment [2] is reported as 9.3%; in experiment [6], over 91.9%; in experiment [7] it was over 22.7%; in experiment [8], over 61.4%.
Regarding `Cc1ccc(C(=O)O[C@@H]2Cc3c(O)cc(O)cc3O[C@@H]2c2cc(O)c(O)c(O)c2)cc1`, the Viability was over 80% in experiment [1], over 80% in experiment [3], 60% in experiment [4] and over 80% in experiment [5]. Moreover, the Activation in experiment [2] is 10.4%; in experiment [6], over 91.7%; in experiment [7], over 33%; in experiment [8], over 62.8%.
On to `CCCCCCCCCCCC(=O)O[C@@H]1Cc2c(O)cc(O)cc2O[C@@H]1c1cc(O)c(O)c(O)c1`, for which the Viability is reported as over 80% in experiment [1], over 80% in experiment [3], 60% in experiment [4] and over 80% in experiment [5]. Also, the Activation in experiment [2] is recorded as 12.7%; in experiment [6], over 94.2%; in experiment [7], over 31.9%; in experiment [8], over 65.8%.
`CCCCCCCCC(C)C(=O)O[C@@H]1Cc2c(O)cc(O)cc2O[C@@H]1c1cc(O)c(O)c(O)c1` (stereo partly specified): the Viability in experiment [1] is on record as over 80%; in experiment [3], over 80%; in experiment [4], 60%; in experiment [5], over 80%. The Activation in experiment [2] is listed as 7.9%; in experiment [6], over 88.9%; in experiment [7], over 20.1%; in experiment [8], over 58.3%.
Take `CCCCCCCCCCCCCC(=O)O[C@@H]1Cc2c(O)cc(O)cc2O[C@@H]1c1cc(O)c(O)c(O)c1`: the Viability is listed as over 80% in experiment [1], over 80% in experiment [3], 60% in experiment [4] and over 80% in experiment [5]. Besides, the Activation is listed as 18.3% in experiment [2], over 100% in experiment [6], over 35.2% in experiment [7] and over 68.4% in experiment [8].
With `Oc1cc(O)c2c(c1)O[C@H](c1cc(O)c(O)c(O)c1)[C@H](O)C2` [EPIGALLOCATECHIN], the Viability in experiment [1] is over 80%; in experiment [3] it was over 80%; in experiment [4], 60%; in experiment [5], over 80%. The Activation is recorded as 19.3% in experiment [2], over 100% in experiment [6], over 44.9% in experiment [7] and over 73% in experiment [8].
Take `CCCCCCCC(=O)O[C@@H]1Cc2c(O)cc(O)cc2O[C@@H]1c1cc(O)c(O)c(O)c1`: the Viability was over 80% in experiment [1], over 80% in experiment [3], 60% in experiment [4] and over 80% in experiment [5]. The Activation in experiment [2] is on record as 6.5%; in experiment [6], over 89.2%; in experiment [7], over 19.3%; in experiment [8], over 56%.
